According to US20230132535A1, “PROLIFERATION SUPPRESSING AGENT FOR CANINE CANCER CELLS” (Japan Animal Referral Medical Center, priority 2020, published 2023):
pIC50: −log10 of the molar value.

Columns and labels:
[1] = system: canine V595E transitional epithelial cancer cells (TCCV-Ka, TCCV-So, TCCV-Ec, TCCV-Ni, TCCV-Ic); assay: Cell proliferation suppressing test (WST 1), five V595E transitional epithelial cancer established cell lines; format: cell-based
Source text: Using five canine V595E transitional epithelial cancer established cell lines, taken from clinical cases by the inventors so far and cloned in approximately 80 passages, the cell proliferation suppressing activity of eight human BRAF inhibiting agents (GDC0879, AZ628, PLX4720, Encorafenib, Vemurafenib, Dabrafenib, RAF265, and CEP32496), which are available and have high cell proliferation suppressing activity, was investigated. In addition, in the xenograft test system, suppression of tumor growth (anti-tumor activity) was measured and the anti-tumor activity was investigated.
1,000 to 3,000 established cell lines (TCCV-Ka, TCCV-So, TCCV-Ec, TCCV-Ni, and TCCV-Ic) per well were spread on 96 well culture plates and cultured for 24 hours, then 8 BRAF inhibiting agents (GDC0879, AZ628, PLX4720, Encorafenib, Vemurafenib, Dabrafenib, RAF265, and CEP32496) dissolved in 0.1% DMSO were added with GDC0879, AZ628, Vemurafenib, Dabrafenib, and RAF265 at 0, 50, 100, 500, 1000, 5000, and 10000 nM, PLX4720 at 0, 1, 10, 100, 1000, 5000, and 10000 nM, Encorafenib at 0, 32, 63, 125, 250, 500, and 1000 nM, CEP32496 at 0, 3, 10, 30, 100, 300, and 1000 nM, the number of surviving cells after 24, 48, and 72 hours was measured using WST 1, and the cell proliferation suppressing activity was calculated. […]

[2] = system: V595E transitional epithelial cancer cells (TCCV-So strain); assay: Cell proliferation suppressing test (WST 1), TCCV-So strain; format: cell-based, canine; settings: Canis lupus familiaris
Protocol: (§1) 1,000 to 3,000 established cell lines (TCCV-Ka, TCCV-So, TCCV-Ec, TCCV-Ni, and TCCV-Ic) per well were spread on 96 well culture plates and cultured for 24 hours, then 8 BRAF inhibiting agents (GDC0879, AZ628, PLX4720, Encorafenib, Vemurafenib, Dabrafenib, RAF265, and CEP32496) dissolved in 0.1% DMSO were added with GDC0879, AZ628, Vemurafenib, Dabrafenib, and RAF265 at 0, 50, 100, 500, 1000, 5000, and 10000 nM, PLX4720 at 0, 1, 10, 100, 1000, 5000, and 10000 nM, Encorafenib at 0, 32, 63, 125, 250, 500, and 1000 nM, CEP32496 at 0, 3, 10, 30, 100, 300, and 1000 nM, the number of surviving cells after 24, 48, and 72 hours was measured using WST 1, and the cell proliferation suppressing activity was calculated.
(§2) One example of the reaction curve of the BRAF inhibiting agent against canine V595E transitional epithelial cancer cells (TCC V-So strain) was shown in FIG. 1.

[3] = system: BRAFV595E transitional epithelial cancer cells (TCCV-Ka strain); assay: Anti-tumor activity by a xenograft test system (TCCV-Ka strain in SCID mice); format: in vivo, SCID mouse; settings: 10 mg/kg intraperitoneally, 5 times/week, compared to control group, from day 5 of administration
Protocol: In order to observe the anti-tumor activity in the xenograft test system, it has been reported that the tumor growth depends on the number of cells inoculated, cell strains, and animal species. Then, five strains of V595E transitional epithelial cancer established cell lines, 1×10^6 and 1×10^7 cells/200 μl, were inoculated subcutaneously on the ventral side of SCID mouse (CB17/Icr-scid/scid. Jcl, CLEA Japan), and the formation of tumors was observed.
Using the TCCV-Ka strain as a graft cell, 1×10^7 cells were inoculated on the right ventral side of 5 SCID mice in each of the administration group and the control group. Two weeks later, a tumor of approximately 5×5 mm was formed. In the control group, 10% DMSO was administered intraperitoneally, and in the administration group, 200 μl of CEP32496 suspension solution (10 mg/kg) in 10% DMSO was administered intraperitoneally. The administration was 5 times/week.

[4] = system: TCCV-Ec strain; assay: Cell proliferation suppressing test (WST 1), TCCV-Ec strain; format: cell-based, canine; settings: Canis lupus familiaris; TCCV-Ec strain only
Protocol: as §1, §2

[5] = system: TCCV-Ni strain; assay: Cell proliferation suppressing test (WST 1), TCCV-Ni strain; format: cell-based, canine; settings: Canis lupus familiaris

COc1cc2ncnc(Oc3cccc(NC(=O)Nc4cc(C(C)(C)C(F)(F)F)on4)c3)c2cc1OC [CEP32496, 1-(3-((6,7-dimethoxyquinazolin-4-yl)oxy)phenyl)-3-(5-(1,1,1-trifluoro-2-methylpropan-2-yl)isoxazol-3-yl)urea]
proliferation suppressing activity compared to the other 7 BRAF inhibiting agents ([1]; 5 strains, FIG. 2): significantly higher activity
pIC50 ([1]; Canis lupus familiaris, all the cell strains used (5 strains)): 6.70 to 8.05
pIC50 [2]: 7.82
suppression of tumor formation (anti-tumor activity) [3]: significant suppression of tumor formation

COC(=O)N[C@@H](C)CNc1nccc(-c2cn(C(C)C)nc2-c2cc(Cl)cc(NS(C)(=O)=O)c2F)n1 [Encorafenib]
pIC50 [4]: 6.74

Cn1c(Nc2ccc(C(F)(F)F)cc2)nc2cc(Oc3ccnc(-c4ncc(C(F)(F)F)[nH]4)c3)ccc21 [RAF265]
pIC50 [4]: 6.82

CCCS(=O)(=O)Nc1ccc(F)c(C(=O)c2c[nH]c3ncc(Cl)cc23)c1F [PLX4720]
pIC50 [4]: 6.70

CCCS(=O)(=O)Nc1ccc(F)c(C(=O)c2c[nH]c3ncc(-c4ccc(Cl)cc4)cc23)c1F [Vemurafenib]
pIC50 [5]: 5.82
